According to US20240262818A1, “Selenium Maleimide Compounds And Uses Thereof” (THE UNIVERSITY OF NORTH CAROLINA AT CHAPEL HILL, priority 2021, published 2024):

Assays:
[1] = type: physicochemical
Protocol: Synthesis of Compound 1: Selenium (31.0 mg, 0.39 mmol, 1.00 equiv.) was suspended in an aqueous solution of 1M NaOH (6 mL) under Ar atmosphere. To the solution, Rongalite (i.e., sodium hydroxymethanesulfinate, Na^+HOCH2SO2^−) (120.0 mg, 0.78 mmol, 2.00 equiv.) was added and stirred vigorously. Then, the reaction solution was heated to 80° C. using an oil bath. After reacting for 0.5 h, hepta-4,6-diynoic acid (44.0 mg, 0.36 mmol, 0.92 equiv.) in ethanol (4 mL) was added and the reaction mixture was reacted at 80° C. for an additional 5 h. The reaction was allowed to cool to room temperature and diluted with a saturated NH4Cl aqueous solution (10 mL). The solution was transferred to separatory funnel and extracted with EtOAc (20 mL×3). The combined organic layer was washed with brine (50 mL) and dried over MgSO4, filtered, concentrated, and purified by flash chromatography (20:1 hexanes:ethyl acetate to 10:1 to 5:1 to 2:1 to 1:1) to yield selenium compound 1 in 45% yield (36 mg). Isotopically pure compounds were also prepared by following the above described procedure.

[2] = system: peripheral blood mononuclear cells (PBMC); experiment: Labeling of PBMC with SeMal reagents, mass cytometry; type: cell-based; details: viable, fixed and fixed and permeabilized PBMC
Protocol: (§1) 3×10^6 viable, paraformaldehyde-fixed, or fixed and permeabilized peripheral blood mononuclear cells (PBMC) were incubated for 15 min with the indicated concentration of SeMal reagent in 0.2 ml PBS. Binding reactions were stopped by the addition of 5-fold excess volume of Cell Staining Buffer (Fluidigm) followed by incubation with Iridium using standard protocols. Data representations are from gated viable single cells. Cell viability […] incubation (for the viable cell condition) was >98%.

[3] = system: viable peripheral blood mononuclear cells (PBMC); experiment: Cell viability after SeMal incubation; type: cell-based; details: at working concentrations
Protocol: as §1

| Structure (SMILES) | stability on storage [1] | labeling of PBMC [2] | toxicity when labeling viable cells [3] |
| --- | --- | --- | --- |
| O=C(O)CCc1ccc[se]1 [Compound 1] | sufficient stability | – | – |
| O=C(CCc1ccc[se]1)NCCN1C(=O)C=CC1=O [Compound 2] | – | effectively label | non-toxic |
